In US20120141479A1, “Histone Deacetylase Inhibitors Sensitize Cancer Cells To Epidermal Growth Factor Inhibitors” (priority 2007, published 2012):

How the values were obtained:
Assay type in all cases: cell-based
[1] = system: E-cad expression in H157 cells; experiment: E-cad expression after HDAC inhibitor treatment; settings: 24 hours after treatment with 4 or 10 μM MS-275
Experimental: (§1) RNA, Primers, and Quantitative Real-Time RT-PCR. Total RNA was prepared from NSCLC cell lines using the RNAeasy (Qiagen). During the preparation all samples were treated with RNase-free DNase 1 (10 mg/ml, Qiagen) prior to cDNA synthesis. cDNA was synthesized as part of the RT-PCR reaction from […] total RNA. Quantitative Real-Time RT-PCR assays were performed using the SYBR Green RT-PCR Kit (Qiagen) using a GeneAmp 5700 Sequence Detector (Applied Biosystems), which allows amplification and detection (by fluorescence) in the same tube, using a kinetic approach. Amplification data were analyzed by using GENEAMP 5700 SDS software, converted into cycle numbers at a set cycle threshold (Ct values) and quantified in relation to a standard. Human adult-lung (Clontech Lab. Inc) or human fetal-lung RNA (Stratagene) was used as standards in all the experiments. Standards were used at […]. In each experiment a no-template control was used as a control. To normalize for the amount of input cDNA, the quantified relative amount of the generated product was divided by the amount generated for the housekeeping gene beta-Actin. All samples were performed in triplicates.
(§2) Expression of E-cad was evaluated in these cell lines.

[2] = system: E-cad expression in H460 cells; experiment: E-cad expression after HDAC inhibitor treatment; settings: 24 hours after treatment with 4 or 10 μM MS-275
Experimental: as §1, §2

[3] = system: E-cad expression in H520 cells; experiment: E-cad expression after HDAC inhibitor treatment; settings: 24 hours after treatment with 4 or 10 μM MS-275
Experimental: as §1, §2

[4] = system: 1483 head & neck cancer cell line; experiment: Modified MTT growth inhibition assay; settings: SNDX275 added as first drug
Experimental: (§3) Combination administrations were performed as sequential treatments where the HDAC inhibitor was administer prior to the EGFR inhibitor, or simultaneous treatments in selected cell lines. Concentrations of HDAC inhibitors and EGFR inhibitors are indicated as μM concentrations in all experiments. SNDX275 was administered in three increasing concentrations, with a variety of ranges depending upon the cell line.
(§4) Drugs were diluted in fresh medium before each experiment, and the final DMSO concentration was <0.1%. Growth inhibition was assessed using a modified MTT assay. 2×10^3 cells were plated in each well of 96-well flat-bottomed microtiter plates and drugs were added the next day. […] The microtiter plates were incubated for 4 hours at 37° C. The visible absorbance of each well was measured using an automated plate reader (Molecular Devices, Sunnyvale, Calif.), and data were analyzed using SlideWrite to determine the drug IC50.

[5] = system: 584 head & neck cancer cell line; experiment: Modified MTT growth inhibition assay; settings: SNDX275 added as first drug
Experimental: as §3, §4

[6] = system: Detroit562 head & neck cancer cell line; experiment: Modified MTT growth inhibition assay
Experimental: as §3, §4

[7] = system: FaDu head & neck cancer cell line; experiment: Modified MTT growth inhibition assay
Experimental: as §3, §4

[8] = system: HPAFII pancreatic cancer cell line; experiment: Modified MTT growth inhibition assay; settings: SNDX275 added as first drug
Experimental: as §3, §4

[9] = system: HS766T pancreatic cancer cell line; experiment: Modified MTT growth inhibition assay
Experimental: as §3, §4

[10] = system: MSK2922 head & neck cancer cell line; experiment: Modified MTT growth inhibition assay; settings: SNDX275 added as first drug
Experimental: as §3, §4

[11] = system: Panc02.03 pancreatic cancer cell line; experiment: Modified MTT growth inhibition assay; settings: Panc 02.03
Experimental: as §3, §4

[12] = system: Panc03.27 pancreatic cancer cell line; experiment: Modified MTT growth inhibition assay; settings: Panc 03.27, both drugs added at the same time
Experimental: as §3, §4

[13] = system: Panc04.03 pancreatic cancer cell line; experiment: Modified MTT growth inhibition assay; settings: Panc 04.03
Experimental: as §3, §4

[14] = system: UMSCC19 head & neck cancer cell line; experiment: Modified MTT growth inhibition assay
Experimental: as §3, §4

[15] = system: UMSCC22B head & neck cancer cell line; experiment: Modified MTT growth inhibition assay
Experimental: as §3, §4

[16] = SNDX275 0.60 μM alone, SNDX275 added as first drug
[17] = SNDX275 0.60 μM alone, both drugs added at the same time
[18] = SNDX275 2.00 μM alone, SNDX275 added as first drug
[19] = SNDX275 2.00 μM alone, both drugs added at the same time
[20] = SNDX275 1.0 μM alone, SNDX275 added as first drug
[21] = SNDX275 1.0 μM alone, both drugs added at the same time
[22] = SNDX275 6.0 μM alone, SNDX275 added as first drug
[23] = SNDX275 6.0 μM alone, both drugs added at the same time
[24] = SNDX275 0.6 μM alone, both drugs added at the same time
[25] = SNDX275 3.0 μM alone, SNDX275 added as first drug
[26] = SNDX275 3.0 μM alone, both drugs added at the same time

Compound: Nc1ccccc1NC(=O)c1ccc(CNC(=O)OCc2cccnc2)cc1 [MS-275]
- upregulation of E-cad expression [1]: Eight to twelve fold
- upregulation of E-cad expression [2]: Eight to twelve fold
- upregulation of E-cad expression [3]: Eight to twelve fold
- surviving ([4]; SNDX275 0.6 μM alone): 79.246%
- surviving ([4]; SNDX275 2.0 μM alone): 51.509%
- surviving ([4]; SNDX275 3.0 μM alone): 31.776%
- surviving ([5]; SNDX275 0.3 μM alone): 84.045%
- surviving ([5]; SNDX275 1.0 μM alone): 45.516%
- surviving ([5]; SNDX275 2.0 μM alone): 20.656%
- surviving ([6]; SNDX275 0.06 μM alone, SNDX275 added as first drug): 75.017%
- surviving ([6]; SNDX275 0.06 μM alone, both drugs added at the same time): 79.829%
- surviving [6, 16]: 58.925%
- surviving [6, 17]: 72.276%
- surviving [6, 18]: 23.887%
- surviving [6, 19]: 28.832%
- surviving ([7]; SNDX275 0.30 μM alone, SNDX275 added as first drug): 69.008%
- surviving ([7]; SNDX275 0.30 μM alone, both drugs added at the same time): 87.506%
- surviving [7, 16]: 48.451%
- surviving [7, 17]: 73.418%
- surviving [7, 18]: 20.262%
- surviving [7, 19]: 30.504%
- surviving ([8]; SNDX275 0.10 μM alone): 74.635%
- surviving ([8]; SNDX275 0.30 μM alone): 42.098%
- surviving ([8]; SNDX275 1.00 μM alone): 28.287%
- surviving [9, 20]: 77.851%
- surviving [9, 21]: 78.939%
- surviving [9, 22]: 40.175%
- surviving [9, 23]: 55.038%
- surviving ([9]; SNDX275 10.0 μM alone, SNDX275 added as first drug): 77.851%
- surviving ([9]; SNDX275 10.0 μM alone, both drugs added at the same time): 32.797%
- surviving ([10]; SNDX275 0.3 μM alone): 68.519%
- surviving ([10]; SNDX275 0.6 μM alone): 42.857%
- surviving ([10]; SNDX275 1.0 μM alone): 24.438%
- surviving ([11]; SNDX275 0.6 μM alone, SNDX275 added as first drug): 71.569%
- surviving [11, 24]: 44.980%
- surviving [11, 20]: 34.220%
- surviving [11, 21]: 34.529%
- surviving [11, 25]: 24.323%
- surviving [11, 26]: 25.444%
- surviving ([12]; SNDX275 0.10 μM alone): 78.263%
- surviving ([12]; SNDX275 2.00 μM alone): 38.926%
- surviving ([12]; SNDX275 6.00 μM alone): 21.757%
- surviving ([13]; SNDX275 0.3 μM alone, SNDX275 added as first drug): 71.205
- surviving [13, 24]: 63.051%
- surviving [13, 20]: 49.175
- surviving [13, 21]: 28.676%
- surviving [13, 25]: 37.954
- surviving [13, 26]: 25.551%
- surviving ([14]; SNDX275 0.60 μM alone, SNDX275 added as first drug (first table)): 73.417%
- surviving ([14]; SNDX275 0.60 μM alone, SNDX275 added as first drug (second table)): 83.778%
- surviving ([14]; SNDX275 2.00 μM alone, SNDX275 added as first drug (first table)): 54.951%
- surviving ([14]; SNDX275 2.00 μM alone, SNDX275 added as first drug (second table)): 46.466%
- surviving ([14]; SNDX275 6.00 μM alone, SNDX275 added as first drug (first table)): 24.242%
- surviving ([14]; SNDX275 6.00 μM alone, SNDX275 added as first drug (second table)): 37.033%
- surviving [15, 20]: 73.156%
- surviving [15, 21]: 76.730%
- surviving ([15]; SNDX275 2.0 μM alone, SNDX275 added as first drug): 55.978%
- surviving ([15]; SNDX275 2.0 μM alone, both drugs added at the same time): 63.169%
- surviving [15, 22]: 25.180%
- surviving [15, 23]: 55.057%
